Values quoted from earlier work as cited in patent publication US20240000809A1, “IMPROVED USE OF CANNABINOIDS IN THE TREATMENT OF EPILEPSY” (ORCOSA INC., priority 2020, published 2024).

Conditions: ingested orally, extensive first pass metabolism

SMILES: C=C(C)[C@@H]1CCC(C)=C[C@H]1c1c(O)cc(CCCCC)cc1O [CBD, cannabidiol]
- bioavailability: 6 to 11%
